Laboratory results published in US20150315218A1, “SALTS OF PRODRUGS OF PIPERAZINE AND SUBSTITUTED PIPERIDINE ANTIVIRAL AGENTS” (Bristol-Myers Squibb Company, priority 2004, published 2015).

How the values were obtained:
[1] = IV and PO pharmacokinetic studies of prodrug salts (Iab, Ibb, Icb) in the rat, with historical parent data; format: in vivo, Sprague-Dawley rats; conditions: for AUC: read-out: AUCtot; for Cmax: read-out: Cmax; for half-life: read-out: T1/2 (converted)
Procedure: All blood samples (0.3 mL) were colleted in microtainers containing K2EDTA (Becton Dickinson, Franklin Lakes, N.J.) and placed on chipped ice. After centrifugation, plasma was separated and stored at −20° C. until analysis. The mono-lysine salt of Iab (Form 3, Lot 1) was used for the pharmacokinetic studies. The dosing solutions of Iab were prepared in either sterile water (for IV administration in dogs and monkeys) or distilled water (for all other dose administration).
Male Sprague-Dawley rats (300-350 g, Hilltop Lab Animals, Inc., Scottsdale, Pa.) with cannulas implanted in the jugular vein were used. The rats were fasted overnight in the PO pharmacokinetic studies. Blood samples were collected from the jugular vein.
In the IV study, Iab was delivered at 1.4 mg/kg (free acid, or 1.1 mg/kg of IVa equivalent) as a bolus over 0.5 min (n=3).
In the PO study, Iab was administered at 7.9 mg/kg (free acid, or 6.3 mg/kg of IVa equivalent) by oral gavage (n=3). The concentration of the dosing solution was 4.0 mg/mL, and the dosing volume was 2 mL/kg.
The pharmacokinetic parameters of Iab and IVa were calculated by Non-Compartmental Analysis using the […]™ software program (version 4.0.2, InnaPhase Co., Philadelphia, Pa.). The Cmax and Tmax values were recorded directly from experimental observations. The AUC0-n and AUCtot values were calculated using the mixed log-linear trapezoidal summations. The total body clearance (Cl), mean residence time (MRT), and the steady state volume of distribution (Vss) were also calculated after intravenous administration. The absolute oral bioavailability (expressed as %) was estimated by taking the ratio of dose-normalized AUC values after oral doses to those after intravenous doses.
All blood samples (0.3 mL) were colleted in microtainers containing K2EDTA (Becton Dickinson, Franklin Lakes, N.J.) and placed on chipped ice. After centrifugation, plasma was separated and stored at −20° C. until analysis. The mono-lysine salt of Ibb (Form 3) was used for the pharmacokinetic studies. The dosing solutions of Ibb were prepared in either sterile water (for IV administration in dogs and monkeys) or distilled water (for all other dose administration).
(§1) The Cmax and Tmax values were recorded directly from experimental observations. The AUC0-n and AUCtot values were calculated using the mixed log-linear trapezoidal summations. The total body clearance (Cl), mean residence time (MRT), and the steady state volume of distribution (Vss) were also calculated after intravenous administration. The absolute oral bioavailability (expressed as %) was estimated by taking the ratio of dose-normalized AUC values after oral doses to those after intravenous doses.
In the IV study, Icb was delivered at 1.4 mg/kg (free acid, or 1.1 mg/kg of IVe equivalent) as a bolus over 0.5 min (n=3).
In the PO study, Icb was administered at 6.9 mg/kg (free acid, or 5.6 mg/kg of IVe equivalent) by oral gavage (n=3).
as §1

[2] = IV and PO pharmacokinetic studies of prodrug salts (Iab, Ibb, Icb) in the dog, with historical parent data; format: in vivo, beagle dogs; conditions: plasma; for half-life: read-out: T1/2 (converted); for concentration at 24 h: read-out: C-24 hr; for AUC: read-out: AUCtot; for Cmax: read-out: Cmax
Procedure: The IV and PO studies of Iab were conducted in a crossover fashion in three male beagle dogs (11±1.1 kg, Marshall Farms USA Inc., North Rose, N.Y.). There was a two-week washout period between the IV and PO studies.
In the IV study, Iab was infused via the cephalic vein at 1.2 mg/kg (free acid, or 0.95 mg/kg of IVa equivalent) over 5 min at a constant rate of 0.1 mL/kg/min. The concentration of the dosing solution was 2.4 mg/mL, and the dosing volume was 0.5 mL/kg. Serial blood samples were collected from the femoral artery before dosing and at 5, 10, 15, 30, 45 min, 1, 2, 4, 6, 8 and 24 hr after dosing.
In the PO study, the dogs were fasted overnight before dosing. Iab was administered by oral gavage at 6.6 mg/kg (free acid, or 5.2 mg/kg of IVa equivalent). The concentration of the dosing solution was 13.2 mg/mL, and the dosing volume was 0.5 mL/kg. Serial blood samples were collected before dosing and at 15, 30, 45 min, 1, 2, 4, 6, 8 and 24 hr after dosing.
The IV and PO studies of Ibb were conducted in male beagle dogs (10±0.78 kg, Marshall Farms USA Inc., North Rose, N.Y.). Three dogs were used in each study. Of the three dogs, two same dogs were used for both IV and PO studies. There was a two-week washout period between the IV and PO studies.
The concentration of the dosing solution was 2.6 mg/mL, and the dosing volume was 0.5 mL/kg. Serial blood samples were collected from the femoral artery before dosing and at 5, 10, 15, 30, 45 min, 1, 2, 4, 6, 8 and 24 hr after dosing.
In the PO study, the dogs were fasted overnight before dosing. […] The concentration of the dosing solution was 7.0 mg/mL, and the dosing volume was 1 mL/kg. Serial blood samples were collected before dosing and at 15, 30, 45 min, 1, 2, 4, 6, 8 and 24 hr after dosing.
The IV and PO studies of Icb were conducted in a crossover fashion in three male beagle dogs (12±2.8 kg, Marshall Farms USA Inc., North Rose, N.Y.). There was a two-week washout period between the IV and PO studies.
In the IV study, Icb was infused via the cephalic vein at 1.3 mg/kg (free acid, or 1.0 mg/kg of IVe equivalent) over 5 min at a constant rate of 0.1 mL/kg/min. The concentration of the dosing solution was 2.6 mg/mL, and the dosing volume was 0.5 mL/kg. Serial blood samples were collected from the femoral artery before dosing and at 5, 10, 15, 30, 45 min, 1, 2, 4, 6, 8 and 24 hr after dosing.
In the PO study, the dogs were fasted overnight before dosing. […] The concentration of the dosing solution was 12 mg/mL, and the dosing volume was 0.5 mL/kg. Serial blood samples were collected before dosing and at 15, 30, 45 min, 1, 2, 4, 6, 8 and 24 hr after dosing.

O=C(C(=O)N1CCN(C(=O)c2ccccc2)CC1)c1c[nH]c2c(-n3ccnn3)ncc(F)c12 [IVb]
Vdss ([1]; IV IVb 1 mg/kg, historical IVb): 0.49 ± 0.26 L/kg
bioavailability ([1]; Sprague-Dawley (rats), breed of dogs and monkeys not stated, plasma, po, range over rats, dogs and monkeys, read-out: oral bioavailabilities of parent after administration of prodrug): 50 to 310%
bioavailability ([1]; Sprague-Dawley, plasma, historical parent, PO 5 mg/kg, read-out: Bioavailability (%)): 60%
Tmax ([1]; Sprague-Dawley, plasma, historical parent, PO 5 mg/kg, read-out: Tmax (hr), PO): 4.7 h
AUC ([1]; in vivo, po, 5 mg/kg): 86 ± 33 µM·h
Cmax ([1]; in vivo, po, 5 mg/kg): 9.5 ± 2.8 µM
half-life ([1]; male, Sprague-Dawley, plasma, iv, […]): 3 ± 1.8 h
bioavailability ([1]; male, Sprague-Dawley, plasma, oral prodrug, calculated from historical IV data of parent, read-out: Bioavailability (%) of parent from prodrug): 50%
Tmax ([1]; male, Sprague-Dawley, plasma, parent after oral prodrug (~5-6 mg/kg parent equivalent), read-out: Tmax (hr), PO): 0.83 h
Cmax ([1]; male, Sprague-Dawley, plasma, po, 6.6 mg/kg): 19 ± 1.8 µM
Tmax ([1]; male, Sprague-Dawley, plasma, po, 6.6 mg/kg, read-out: Tmax): 0.83 ± 0.14 h
AUC ([1]; plasma, iv, 1 mg/kg): 24 ± 3.2 µM·h
MRT ([1]; plasma, iv, 1 mg/kg, read-out: MRT): 5.6 ± 3.6 h
half-life ([1]; plasma, iv, 1 mg/kg): 5.9 ± 4.9 h
concentration at 24 h ([1]; plasma, oral, 5 mg/kg, read-out: C-24 hr): 0.16 µM
bioavailability ([1]; plasma, po, 5 mg/kg, read-out: Bioavailability): 60%
half-life ([1]; plasma, po, 5 mg/kg): 3.7 ± 0.86 h
Tmax ([1]; plasma, po, 5 mg/kg, read-out: Tmax): 4.7 ± 1.2 h
bioavailability ([2]; beagle, historical parent, PO 5 mg/kg, read-out: Bioavailability (%)): 179%
Tmax ([2]; beagle, historical parent, PO 5 mg/kg, read-out: Tmax (hr), PO): 0.5 h
half-life ([2]; male, beagle, iv, […]): 2 ± 0.21 h
bioavailability ([2]; male, beagle, oral prodrug, read-out: Bioavailability (%) of parent from prodrug): 310%
bioavailability ([2]; male, beagle, oral, 7 mg/kg, read-out: Bioavailability): 310%
concentration at 24 h ([2]; male, beagle, oral, 7 mg/kg): 0.037 ± 0.026 µM
Tmax ([2]; male, beagle, parent after oral prodrug (~5 mg/kg parent equivalent), read-out: Tmax (hr), PO): 0.4 h
AUC ([2]; male, beagle, po, 7 mg/kg): 66 ± 17 µM·h
Cmax ([2]; male, beagle, po, 7 mg/kg): 20 ± 2.4 µM
half-life ([2]; male, beagle, po, 7 mg/kg): 2.6 ± 0.21 h
Tmax ([2]; male, beagle, po, 7 mg/kg, read-out: Tmax): 0.4 ± 0.13 h
AUC ([2]; iv, 1 mg/kg): 3.8 µM·h
clearance ([2]; iv, 1 mg/kg, read-out: CLtot): 9.8 mL/min/kg
MRT ([2]; iv, 1 mg/kg, read-out: MRT): 1.8 h
half-life ([2]; iv, 1 mg/kg): 1.6 h
Vd ([2]; iv, 1 mg/kg, read-out: Vdss): 1.1 L/kg
concentration at 24 h ([2]; oral, 5 mg/kg): 0.034 µM
AUC ([2]; po, 5 mg/kg): 30 ± 11 µM·h
bioavailability ([2]; po, 5 mg/kg, read-out: Bioavailability): 179 ± 56%
Cmax ([2]; po, 5 mg/kg): 7.7 ± 0.71 µM
half-life ([2]; po, 5 mg/kg): 2.7 ± 0.4 h
Tmax ([2]; po, 5 mg/kg, read-out: Tmax): 0.5 ± 0.25 h
